# Activity calls are given as the source filed them. The calls are words filed in the database; no cut-off is given here.
# Legend:
# [1] = Cytotoxicity against human FHCC-98 cells after 24 hrs by MTT assay; type: functional, cell-based; settings: FHCC-98, 24 h
# HepG2 [2] = assay: Cytotoxicity against human HepG2 cells after 24 hrs by MTT assay; type: functional, cell-based; settings: HepG2, 24 h
# [3] = Cytotoxicity against human QSG7701 cells after 24 hrs by MTT assay; type: cell-based; settings: QSG7701, 24 h
# HepG2 [4] = assay: Induction of apoptosis in human HepG2 cells assessed as increase in caspase 3 activation using Ac-DEVD-pNA as substrate at 10 uM after 12 hrs by colorimetry relative to control; type: functional
# HepG2 [5] = assay: Cell cycle arrest in human HepG2 cells assessed as accumulation at G2/M phase at 30 uM after 32 hrs by FACS analysis (reference value: 16.8 %); type: functional
# HepG2 [6] = assay: Induction of apoptosis in human HepG2 cells assessed as increase in caspase 3 activation using Ac-DEVD-pNA as substrate at 30 uM after 12 hrs by colorimetry relative to control; type: functional
# HepG2 [7] = assay: Cell cycle arrest in human HepG2 cells assessed as accumulation at S phase at 30 uM after 24 hrs by FACS analysis (reference value: 29.5 %); type: functional
# HepG2 [8] = assay: Cell cycle arrest in human HepG2 cells assessed as accumulation at G2/M phase at 30 uM after 12 hrs by FACS analysis (reference value: 16.8 %); type: functional
# HepG2 [9] = assay: Induction of apoptosis in human HepG2 cells assessed as Bax activation at 30 uM after 24 hrs by immunostaining; type: functional, cell-based
# HepG2 [10] = assay: Upregulation of Cdc-2 in human HepG2 cells at 30 uM after 12 to 32 hrs by Western blotting analysis; type: functional, cell-based
# HepG2 [11] = assay: Cell cycle arrest in human HepG2 cells assessed as accumulation at subG0 phase at 30 uM after 32 hrs by FACS analysis relative to control; type: functional
# HepG2 [12] = assay: Induction of apoptosis in human HepG2 cells assessed as nuclear fragmentation at 30 uM after 24 hrs by immunostaining; type: functional, cell-based
# HepG2 [13] = assay: Upregulation of cyclin B1 in human HepG2 cells at 30 to 50 uM after 24 hrs by Western blotting analysis; type: functional, cell-based
# HepG2 [14] = assay: Cell cycle arrest in human HepG2 cells assessed as accumulation at subG0 phase at 30 uM after 24 hrs by FACS analysis relative to control; type: functional
# HepG2 [15] = assay: Induction of apoptosis in human HepG2 cells assessed as down-regulation of Bcl-2 at 30 uM by Western blotting analysis; type: functional, cell-based; settings: TDE = time-dependent effect
# HepG2 [16] = assay: Cell cycle arrest in human HepG2 cells assessed as accumulation at S phase at 30 uM after 12 hrs by FACS analysis (reference value: 29.5 %); type: functional
# HepG2 [17] = assay: Cell cycle arrest in human HepG2 cells assessed as accumulation at G0/G1 phase at 30 uM after 32 hrs by FACS analysis (reference value: 53.7 %); type: functional
# HepG2 [18] = assay: Induction of apoptosis in human HepG2 cells assessed as up-regulation of Bax at 30 uM by Western blotting analysis; type: functional, cell-based; settings: TDE = time-dependent effect
# HepG2 [19] = assay: Induction of apoptosis in human HepG2 cells assessed as PARP cleavage at 30 uM by Western blotting analysis; type: functional, cell-based; settings: TDE = time-dependent effect
# [20] = Induction of apoptosis in human QSG7701 cells assessed as increase in caspase 3 activation using Ac-DEVD-pNA as substrate at 30 uM after 12 hrs by colorimetry relative to control; type: cell-based; settings: qsg7701, 12 h
# HepG2 [21] = assay: Cell cycle arrest in human HepG2 cells assessed as accumulation at G0/G1 phase at 30 uM after 24 hrs by FACS analysis (reference value: 53.7 %); type: functional
# HepG2 [22] = assay: Upregulation of cyclin B1 in human HepG2 cells at 30 uM after 12 to 32 hrs by Western blotting analysis; type: functional, cell-based
# HepG2 [23] = assay: Cell cycle arrest in human HepG2 cells assessed as accumulation at S phase at 30 uM after 32 hrs by FACS analysis (reference value: 29.5 %); type: functional
# HepG2 [24] = assay: Cell cycle arrest in human HepG2 cells assessed as accumulation at G2/M phase at 30 uM; type: functional, cell-based; settings: TDE = time-dependent effect
# FHCC-98 [25] = assay: Inhibition of human FHCC-98 cell adhesion to matrigel-coated plates at 50 uM after 30 to 60 mins by crystal violet staining-based spectrophotometry; type: functional
# HepG2 [26] = assay: Cell cycle arrest in human HepG2 cells assessed as accumulation at G0/G1 phase at 30 uM after 12 hrs by FACS analysis (reference value: 53.7 %); type: functional
# HepG2 [27] = assay: Induction of apoptosis in human HepG2 cells assessed as cell shrinkage at 30 uM after 24 hrs by phase-contrast microscopy; type: functional, cell-based
# FHCC-98 [28] = assay: Inhibition of human FHCC-98 cell adhesion to matrigel-coated plates at 100 uM after 30 to 60 mins by crystal violet staining-based spectrophotometry; type: functional
# HepG2 [29] = assay: Cell cycle arrest in human HepG2 cells assessed as accumulation at G2/M phase at 30 uM after 24 hrs by FACS analysis (reference value: 16.8 %); type: functional
# HepG2 [30] = assay: Cell cycle arrest in human HepG2 cells assessed as accumulation at subG0 phase at 30 uM after 12 hrs by FACS analysis relative to control; type: functional
# [31] = Induction of apoptosis in human QSG7701 cells assessed as Bax activation at 30 uM after 24 hrs by immunostaining; type: cell-based; settings: qsg7701, 24 h
# HepG2 [32] = assay: Induction of apoptosis in human HepG2 cells assessed as chromatin condensation at 30 uM after 24 hrs by immunostaining; type: functional, cell-based
# HepG2 [33] = assay: Upregulation of Cdc-2 in human HepG2 cells at 30 to 50 uM after 24 hrs by Western blotting analysis; type: functional, cell-based
# HepG2 [34] = assay: Cell cycle arrest in human HepG2 cells assessed as accumulation at subG0 phase at 50 uM after 24 hrs by FACS analysis relative to control; type: functional
# HepG2 [35] = assay: Cell cycle arrest in human HepG2 cells assessed as accumulation at G0/G1 phase at 50 uM after 24 hrs by FACS analysis (reference value: 53.7 %); type: functional
# HepG2 [36] = assay: Cell cycle arrest in human HepG2 cells assessed as accumulation at G2/M phase at 50 uM after 24 hrs by FACS analysis (reference value: 16.8 %); type: functional
# HepG2 [37] = assay: Cell cycle arrest in human HepG2 cells assessed as accumulation at S phase at 50 uM after 24 hrs by FACS analysis (reference value: 29.5 %); type: functional
structure (smiles),measurement,setting,value
Oc1cccc(/C=C/c2cc(O)cc(O)c2)c1,IC50,[1],> 100 µM
same,IC50,HepG2 [2],95.8 µM
same,IC50,[3],> 100 µM
CC[C@@]1(O)C(=O)OCc2c1cc1n(c2=O)Cc2cc3ccccc3nc2-1 [CAMPTOTHECIN],IC50,[1],15.2 µM
same,IC50,HepG2 [2],6.4 µM
same,fold change (FC),HepG2 [4],4
same,IC50,[3],18.3 µM
COc1cc(O)cc(/C=C/c2ccc(OC)c(O)c2OC)c1 [PHOYUNBENE A],IC50,[1],> 100 µM
same,IC50,HepG2 [2],> 100 µM
same,IC50,[3],> 100 µM
COc1cc(O)cc(/C=C/c2ccc(O)c(OC)c2OC)c1 [PHOYUNBENE B],Activity,HepG2 [5],75.2%
same,fold change (FC),HepG2 [6],5
same,Activity,HepG2 [7],13%
same,IC50,[1],45.8 µM
same,Activity,HepG2 [8],41.3%
same,IC50,HepG2 [2],37.1 µM
same,Activity,HepG2 [9],Active
same,Activity,HepG2 [10],inactive
same,Activity,HepG2 [11],12.3%
same,Activity,HepG2 [12],Active
same,Activity,HepG2 [13],Active
same,Activity,HepG2 [14],6.5%
same,Activity,HepG2 [15],tde
same,Activity,HepG2 [16],20.5%
same,Activity,HepG2 [17],4.6%
same,Activity,HepG2 [18],tde
same,Activity,HepG2 [19],tde
same,Activity,[20],Non-toxic
same,Activity,HepG2 [21],17.7%
same,Activity,HepG2 [22],Active
same,Activity,HepG2 [23],7.9%
same,Activity,HepG2 [24],tde
same,inhibition,FHCC-98 [25],Active
same,Activity,HepG2 [26],38.2%
same,Activity,HepG2 [27],Active
same,inhibition,FHCC-98 [28],Active
same,Activity,HepG2 [29],62.8%
same,Activity,HepG2 [30],0%
same,Activity,[31],Non-toxic
same,Activity,HepG2 [32],Active
same,IC50,[3],> 100 µM
same,Activity,HepG2 [33],inactive
COc1cc(O)cc(/C=C/c2cccc(O)c2OC)c1 [PHOYUNBENE C],IC50,[1],> 100 µM
same,IC50,HepG2 [2],90.8 µM
same,IC50,[3],> 100 µM
COc1cc(O)cc(/C=C/c2cccc(OC)c2OC)c1 [PHOYUNBENE D],IC50,[1],80.5 µM
same,IC50,HepG2 [2],> 100 µM
same,IC50,[3],> 100 µM
COc1c(O)cccc1/C=C/c1cc(O)cc(O)c1 [PHOYUNBENE E],IC50,[1],> 100 µM
same,IC50,HepG2 [2],> 100 µM
same,IC50,[3],> 100 µM
COc1cc(O)cc(/C=C/c2cccc(O)c2O)c1 [PHOYUNBENE F],IC50,[1],> 100 µM
same,IC50,HepG2 [2],> 100 µM
same,IC50,[3],> 100 µM
Oc1ccc(/C=C/c2cc(O)cc(O)c2)cc1 [RESVERATROL],IC50,[1],95.2 µM
same,Activity,HepG2 [34],0%
same,IC50,HepG2 [2],80.3 µM
same,Activity,HepG2 [35],31.9%
same,Activity,HepG2 [36],11.7%
same,Activity,HepG2 [37],56.3%
same,inhibition,FHCC-98 [25],Active
same,inhibition,FHCC-98 [28],Active
same,IC50,[3],> 100 µM
